Assay results reported in US20070173538A1 (Alcon, Inc., priority 2005, published 2007).

Legend:
[1] = system: FGFR; assay: Cell-free enzymatic kinase inhibition assay, FGFR; assay type: biochemical; details: 1 mM ATP
[2] = Dissolution of compound in molten PEG; assay type: physicochemical; details: PEG 3350 and PEG 8000 melted at about 60° C. to 95° C.
Source text: The present inventors have discovered that certain active agents have a higher solubility in the presence of PEG than in water. […] This pellet forms a colloidal like suspension when the pellet dissolves in water. Furthermore, using blends of high and low molecular weight PEGs can make erodible gel with the compound uniformly dispersed in it (see examples). This provides an injection dosage form for delivery of insoluble compounds via posterior juxtascleral or intravitreal administration, which enhances the solubility of the compounds and achieves the desired bioavailability. In the formulations of the present invention, the compound forms a solid solution in the matrix of the PEG.

IC50 [1]: > 12.5 µM | Solubility in PEG [2]: dissolve completely
Compound: Cc1ccc(F)c(NC(=O)Nc2ccc(-c3cccc4[nH]nc(N)c34)cc2)c1 [RTK Inhibitor, N-[4-(3-amino-1H-indazol-4-yl)phenyl]-N′-(2-fluoro-5-methylphenyl)urea]
